# In US20210205292A1, “INHIBITORS OF CREB-CBP INTERACTION FOR TREATMENT OF LEUKEMIA” (The Board of Trustees of the Leland Stanford Junior …, priority 2016, published 2021):
# What was measured:
# Assay type in all cases: cell-based
# [1] = test system: HL60 (Human promyelocytic leukemia cell line); experiment: CellTiter Glo assay in HL60 cells
# Procedure: (§1) The compounds prepared according to the methods described herein and tested for activity in the CellTiter Glo assay in HL60 (Human promyelocytic leukemia cell line), Jukat (human T lymphocyte cell line for acute T cell leukemia) and/or Nalm6 (human ALL cell line) cells.
# (§2) Compounds were prepared according to the methods described herein and tested for activity in the CellTiter Glo assay in HL60 (Human promyelocytic leukemia cell line), Jukat (human T lymphocyte cell line for acute Tcell leukemia) and/or Nalm6 (human ALL cell line) cells.
# [2] = test system: Jukat (human T lymphocyte cell line for acute T cell leukemia); experiment: CellTiter Glo assay in Jukat cells
# Procedure: as §1, §2
# [3] = test system: Nalm6 (human ALL cell line); experiment: CellTiter Glo assay in Nalm6 cells
# Procedure: as §1, §2
"IC50 ([1]; HL-60, second Table 4)",IC50 ([2]; second Table 4),IC50 ([2]; Table 5),"IC50 ([1]; HL-60, Table 5)",SMILES,"IC50 ([3]; NALM-6, second Table 4)","IC50 ([3]; NALM-6, Table 5)"
< 1000 nM,,,,N#Cc1ccc(NC(=O)c2cc(Br)ccc2O)cc1 [Compound 2],,
< 1000 nM,,,,N#Cc1ccc(NC(=O)c2cc(Cl)ccc2O)cc1 [Compound 3],,
< 1000 nM,,,,Cc1cc(NC(=O)c2cc(F)ccc2O)ccc1C#N [Compound 6],,
< 1000 nM,,,,N#Cc1ccc(NC(=O)c2ccc(Br)cc2O)cc1 [Compound 9],,
< 1000 nM,,,,N#Cc1ccc(NC(=O)c2ccc(Br)cc2O)c(Cl)c1 [Compound 11],,
< 1000 nM,,,,N#Cc1ccc(NC(=O)c2ccc(Cl)cc2O)cc1 [Compound 16],,
1000 to 10000 nM,,,,Cc1ccc(NC(=O)c2cc(F)ccc2O)cc1C#N [Compound 19],,
1000 to 10000 nM,1000 to 10000 nM,,,N#Cc1cc(NC(=O)c2cc(F)ccc2O)ccc1F [Compound 20],1000 to 10000 nM,
< 1000 nM,< 1000 nM,,,O=C(Nc1ccc([N+](=O)[O-])cc1Cl)c1cc(Cl)ccc1O [Compound 23],< 1000 nM,
< 1000 nM,< 1000 nM,,,CC(=O)Oc1ccc(Cl)cc1C(=O)Nc1ccc([N+](=O)[O-])cc1Cl [Compound 24],< 1000 nM,
< 1000 nM,,,,Cc1cc(NC(=O)c2cc(Cl)ccc2O)ccc1[N+](=O)[O-] [Compound 25],,
< 1000 nM,< 1000 nM,,,CC(=O)Oc1ccc(F)cc1C(=O)Nc1ccc(Br)c(Cl)c1 [Compound 27],,
< 1000 nM,< 1000 nM,,,O=C(Nc1ccc(Cl)c(Cl)c1)c1cc(F)ccc1O [Compound 31],1000 to 10000 nM,
< 1000 nM,,,,Cc1cc(NC(=O)c2cc(Cl)ccc2O)ccc1Cl [Compound 35],,
1000 to 10000 nM,,,,Cc1cc(Cl)ccc1NC(=O)c1cc(F)ccc1O [Compound 36],,
1000 to 10000 nM,< 1000 nM,,,O=C(Nc1ccc(Cl)cc1F)c1cc(F)ccc1O [Compound 37],1000 to 10000 nM,
< 1000 nM,> 10000 nM,,,O=C(Nc1ccc(Cl)cc1Cl)c1cc(F)ccc1O [Compound 38],1000 to 10000 nM,
< 1000 nM,< 1000 nM,,,O=C(Nc1ccc(C(F)(F)F)cc1)c1cc(F)ccc1O [Compound 44],< 1000 nM,
< 1000 nM,< 1000 nM,,,O=C(Nc1ccc(OC(F)(F)F)cc1)c1cc(F)ccc1O [Compound 45],1000 to 10000 nM,
< 1000 nM,1000 to 10000 nM,,,Cc1ccc(NC(=O)c2cc(F)ccc2O)cc1C(F)(F)F [Compound 49],1000 to 10000 nM,
< 1000 nM,< 1000 nM,,,O=C(Nc1cccc(OC(F)(F)F)c1)c1cc(F)ccc1O [Compound 52],1000 to 10000 nM,
1000 to 10000 nM,,,,O=C(Nc1ccc(-c2ccccc2)cc1)c1cc(F)ccc1O [Compound 53],,
1000 to 10000 nM,,,,COc1cc(NC(=O)c2cc(F)ccc2O)ccc1F [Compound 55],,
1000 to 10000 nM,< 1000 nM,,,Cc1cc(NC(=O)c2cc(F)ccc2O)ccc1F [Compound 56],1000 to 10000 nM,
,,100 to 1000 nM,100 to 1000 nM,N#Cc1ccc(NC(=O)c2cc(-c3ccccc3)c3cccnc3c2O)cc1 [Compound 65],,100 to 1000 nM
,,100 to 1000 nM,100 to 1000 nM,O=C(Nc1cc(F)cc(F)c1)c1ccc2cccnc2c1O [Compound 69],,100 to 1000 nM
,,100 to 1000 nM,1000 to 10000 nM,O=C(Nc1cc(C(F)(F)F)cc(C(F)(F)F)c1)c1ccc2cccnc2c1O [Compound 70],,1000 to 10000 nM
,,100 to 1000 nM,100 to 1000 nM,N#Cc1ccc(NC(=O)c2cc(-c3ccco3)c3cccnc3c2O)cc1 [Compound 72],,100 to 1000 nM
,,100 to 1000 nM,100 to 1000 nM,Cc1cc(C#N)ccc1NC(=O)c1ccc2cccnc2c1O [Compound 78],,< 100 nM
,,,100 to 1000 nM,N#Cc1ccc(C#N)c(NC(=O)c2ccc3cccnc3c2O)c1 [Compound 88],,

# More lines, now with the values behind:
SMILES,"IC50 ([1]; HL-60, second Table 4)",IC50 ([2]; second Table 4),IC50 ([2]; Table 5),"IC50 ([1]; HL-60, Table 5)","IC50 ([3]; NALM-6, second Table 4)","IC50 ([3]; NALM-6, Table 5)"
N#Cc1ccc(NC(=O)c2ccccc2O)cc1 [Compound 1],1000 to 10000 nM,,,,,
N#Cc1ccc(NC(=O)c2cc(F)ccc2O)cc1Cl [Compound 5],< 1000 nM,,,,,
N#Cc1ccc(NC(=O)c2cc(Br)ccc2O)cc1Cl [Compound 7],< 1000 nM,,,,,
N#Cc1ccc(NC(=O)c2cc(F)ccc2O)cc1 [Compound 8],< 1000 nM,,,,,
N#Cc1ccc(NC(=O)c2ccc(F)cc2O)cc1 [Compound 10],< 1000 nM,,,,,
N#Cc1ccc(NC(=O)c2ccc(Br)cc2O)c(F)c1 [Compound 12],< 1000 nM,,,,,
N#Cc1ccc(NC(=O)c2ccc(Br)cc2O)cc1Cl [Compound 13],< 1000 nM,,,,,
N#Cc1ccc(NC(=O)c2cc(-c3ccccc3)ccc2O)cc1 [Compound 15],1000 to 10000 nM,< 1000 nM,,,1000 to 10000 nM,
N#Cc1ccc(NC(=O)c2ccc(C(F)(F)F)cc2O)cc1 [Compound 17],< 1000 nM,< 1000 nM,,,< 1000 nM,
Cc1cc(NC(=O)c2cc(F)ccc2O)ccc1[N+](=O)[O-] [Compound 21],< 1000 nM,,,,,
O=C(Nc1ccc([N+](=O)[O-])cc1Cl)c1cc(F)ccc1O [Compound 22],< 1000 nM,,,,,
O=C(Nc1ccc(Br)c(Cl)c1)c1cc(F)ccc1O [Compound 26],< 1000 nM,,,,,
O=C(Nc1ccc(Br)c(Cl)c1)c1cc(Cl)ccc1O [Compound 30],< 1000 nM,,,,,
O=C(Nc1ccc(F)c(F)c1)c1cc(F)ccc1O [Compound 32],< 1000 nM,< 1000 nM,,,1000 to 10000 nM,
O=C(Nc1cccc(F)c1)c1cc(F)ccc1O [Compound 33],1000 to 10000 nM,1000 to 10000 nM,,,1000 to 10000 nM,
Cc1cc(NC(=O)c2cc(F)ccc2O)ccc1Cl [Compound 34],< 1000 nM,,,,,
O=C(Nc1ccc(F)cc1F)c1cc(F)ccc1O [Compound 39],1000 to 10000 nM,1000 to 10000 nM,,,1000 to 10000 nM,
O=C(Nc1cccc(F)c1F)c1cc(F)ccc1O [Compound 40],1000 to 10000 nM,1000 to 10000 nM,,,1000 to 10000 nM,
O=C(Nc1cc(F)cc(F)c1)c1cc(F)ccc1O [Compound 41],< 1000 nM,,,,,
O=C(Nc1cc(Cl)cc(Cl)c1)c1cc(F)ccc1O [Compound 42],< 1000 nM,< 1000 nM,,,1000 to 10000 nM,
O=C(Nc1cccc(Cl)c1)c1cc(F)ccc1O [Compound 43],1000 to 10000 nM,1000 to 10000 nM,,,1000 to 10000 nM,
O=C(Nc1ccc(OC(F)(F)F)c(Cl)c1)c1cc(F)ccc1O [Compound 46],< 1000 nM,< 1000 nM,,,< 1000 nM,
O=C(Nc1ccc(Cl)c(C(F)(F)F)c1)c1cc(F)ccc1O [Compound 47],< 1000 nM,> 10000 nM,,,< 1000 nM,

SMILES,"IC50 ([1]; HL-60, second Table 4)",IC50 ([2]; second Table 4),IC50 ([2]; Table 5),"IC50 ([1]; HL-60, Table 5)","IC50 ([3]; NALM-6, second Table 4)","IC50 ([3]; NALM-6, Table 5)"
O=C(Nc1ccc(F)c(C(F)(F)F)c1)c1cc(F)ccc1O [Compound 48],< 1000 nM,< 1000 nM,,,1000 to 10000 nM,
O=C(Nc1cccc(C(F)(F)F)c1)c1cc(F)ccc1O [Compound 50],< 1000 nM,< 1000 nM,,,1000 to 10000 nM,
O=C(Nc1cc(C(F)(F)F)cc(C(F)(F)F)c1)c1cc(F)ccc1O [Compound 51],< 1000 nM,< 1000 nM,,,< 1000 nM,
COc1ccc(NC(=O)c2cc(F)ccc2O)cc1 [Compound 54],1000 to 10000 nM,> 10000 nM,,,> 10000 nM,
CCOC(=O)c1ccc(NC(=O)c2cc(F)ccc2O)cc1 [Compound 57],1000 to 10000 nM,1000 to 10000 nM,,,1000 to 10000 nM,
CCOC(=O)c1cccc(NC(=O)c2cc(F)ccc2O)c1 [Compound 58],< 1000 nM,1000 to 10000 nM,,,1000 to 10000 nM,
O=C(Nc1ccccc1F)c1cc(F)ccc1O [Compound 61],1000 to 10000 nM,,,,,
O=C(Nc1ccccc1C(F)(F)F)c1cc(F)ccc1O [Compound 62],1000 to 10000 nM,,,,,
Cc1ccc(C(F)(F)F)cc1NC(=O)c1cc(F)ccc1O [Compound 63],< 1000 nM,< 1000 nM,,,1000 to 10000 nM,
N#Cc1ccc(NC(=O)c2ccc3cccnc3c2O)cc1 [Compound 64],,,100 to 1000 nM,100 to 1000 nM,,< 100 nM
O=C(Nc1ccc(C(F)(F)F)cc1)c1ccc2cccnc2c1O [Compound 66],,,100 to 1000 nM,100 to 1000 nM,,100 to 1000 nM
O=C(Nc1ccc(Cl)cc1)c1ccc2cccnc2c1O [Compound 67],,,100 to 1000 nM,100 to 1000 nM,,100 to 1000 nM
O=C(Nc1ccc(Br)c(Cl)c1)c1ccc2cccnc2c1O [Compound 68],,,100 to 1000 nM,100 to 1000 nM,,100 to 1000 nM
N#Cc1ccc(NC(=O)c2cc(Br)c3cccnc3c2O)cc1 [Compound 71],,,< 100 nM,100 to 1000 nM,,< 100 nM
Cc1cc(C(=O)Nc2ccc(C#N)cc2)c(O)c2ncccc12 [Compound 73],,,100 to 1000 nM,1000 to 10000 nM,,100 to 1000 nM
CC(=O)Oc1c(C(=O)Nc2ccc(C#N)cc2)ccc2cccnc12 [Compound 74],,,,100 to 1000 nM,,
N#Cc1ccc(NC(=O)c2ccc3cccnc3c2O)c(Cl)c1 [Compound 77],,,100 to 1000 nM,100 to 1000 nM,,100 to 1000 nM
Cc1cccc(Cl)c1NC(=O)c1ccc2cccnc2c1O [Compound 79],,,1000 to 10000 nM,1000 to 10000 nM,,1000 to 10000 nM
N#Cc1ccc(Cl)c(NC(=O)c2ccc3cccnc3c2O)c1 [Compound 80],,,100 to 1000 nM,100 to 1000 nM,,100 to 1000 nM
O=C(Nc1ccc(Cl)cc1Cl)c1ccc2cccnc2c1O [Compound 81],,,100 to 1000 nM,100 to 1000 nM,,100 to 1000 nM
O=C(Nc1c(Cl)cccc1Cl)c1ccc2cccnc2c1O [Compound 87],,,,100 to 1000 nM,,
Cc1ccc(NC(=O)c2ccc3cccnc3c2O)c(C)c1 [Compound 89],,,,1000 to 10000 nM,,
O=C(Nc1ccc([N+](=O)[O-])cc1)c1cc(F)ccc1O [Compound 160],< 1000 nM,,,,,
